US20230391826A1, “COMPOSITIONS AND METHODS FOR TREATING DISEASES” (Sanford Burnham Prebys Medical Discovery Institute, priority 2020, published 2023)
In brackets after ≈: the same amount, converted by molar mass. Like-named read-outs stand apart in the source and are kept apart here. Where a SMILES comes first, the peptide text is derived from it. Bridges are numbered along the chain shown (N, C = ends). Roman numbers before positions name the chains, in order. [ ]: non-standard residue; d: D form. βAla = NCCC(=O)O

Experiments:
[1] = molecular target: T1, EphA2 LBD (Homo sapiens, UniProt P29317); assay: Isothermal titration calorimetry (ITC) with soluble EphA2 LBD; assay type: binding
T1 construct: made in house; host or cells: E. coli Origami 2(DE3)
Procedure: (FIG. 10A-10E) The EphA2 LBD was titrated at 200-250 μM into 10-12.5 μM of the indicated peptide.
For ITC, all peptides are dissolved in DMSO and both the EphA2 LBD and the peptides are diluted to obtain a final buffer containing 9.5 mM HEPES, pH 7.9, 95 mM NaCl, and 5% DMSO. The experiments are carried out at 296 K (23° C.) using an ITC200 calorimeter (Microcal). Two-microliter aliquots of a peptide solution are injected into the cell containing 205 μL EphA2 LBD. 200-400 μM peptides are titrated into 20-40 μM EphA2 LBD. Experimental data are analyzed using the Origin software package (Microcal). The integrated values for the reaction heats are normalized to the amount of injected peptide after blank subtraction.

[2] = molecular target: T2, EphA2 (Homo sapiens, UniProt P29317); assay: EphA2 autophosphorylation on tyrosine 588 in PC3 cells (immunoblot dose-response); assay type: cell-based; set-up: EphA2 is the prevalent endogenously expressed EphA receptor in these cells; endogenous in cells; host or cells: PC3 prostate cancer cells; conditions: for Etop pY588: Table 3, 15 min, saturating ligand, pY588/EphA2 normalized to ephrinA1-Fc
Procedure: (§1) (FIG. 2A) Dose-response curves for EphA2 autophosphorylation on tyrosine 588 (pY588; purple) and for downstream inhibition of AKT phosphorylation (magenta). PC3 cells were treated for 15 min with different concentrations of the indicated peptides. […] The graphs show quantifications from multiple blots (averages ±SE; the number of experiments used to generate each curve is shown in Table 3). […] (FIG. 2B) Examples of immunoblots of lysates from PC3 cells treated with the indicated concentrations of representative ligands. […] A white vertical line indicates removal of irrelevant lanes. […] The bars show averages ±SE, and the individual measurements are shown as black dots. […] Plots of Etop versus EC50 for pY588 in FIG. 2D and for pAKT inh in FIG. 2E. Averages ±SE are shown for the peptides and ephrinA1.
To examine the agonistic properties of the different dimeric peptide ligands, EphA2 autophosphorylation on tyrosine 588 (Y588) was measured, which is indicative of receptor activation and mediates binding of SH2 domain-containing proteins that link EphA2 to various downstream signaling pathways (FIG. 7). For these experiments, PC3 prostate cancer cells were stimulated with the dimeric peptides because EphA2 is the prevalent endogenously expressed EphA receptor in these cells, allowing comparisons with ephrins.

[3] = Peptide solubility in PBS/H2O/DMSO; assay type: physicochemical
Procedure: Peptide identity and purity are documented by mass spectrometry and high-performance liquid chromatography (HPLC). The peptide solubility values are determined. Concentrated peptide stocks are prepared in DMSO or H2O and stored frozen at −80° C.

[4] = molecular target: T3, EphA2 extracellular domain fused to Fc (EphA2-Fc) (Homo sapiens, UniProt P29317); assay: ELISA: inhibition of ephrinA5-AP binding to immobilized EphA2-Fc; conditions: inhibition of ephrin-A5 binding to EphA2; number of experiments in parentheses; read-out: Inc50 (nM) by ELISA
T3 construct: immobilized EphA2 extracellular domain fused to the Fc portion of an antibody (EphA2-Fc)
From the text: FIG. 1A-1C illustrates an example of Potency and selectivity of EphA2-targeting dimeric peptides. (FIG. 1A) ELISAs comparing the ability of the peptides to inhibit binding of ephrin-A5 fused to alkaline phosphatase (ephrinA5-AP) to the immobilized EphA2 extracellular domain fused to the Fc portion of an antibody (EphA2-Fc). The graphs show averages ±SD from triplicate measurements from a representative experiment. IC50 values calculated from the fitted curves in each experiment are shown. Averages of IC50 values obtained from multiple experiments are shown in panel FIG. 1B and Table 3. The 10 nM peptide concentration is outlined in red. (FIG. 1B) Plot of the average IC50 values (listed in Table 3) for different ligands. […] (FIG. 1C) EphrinA5-AP binding to EphA receptors and ephrinB2-AP binding to EphB receptors in the presence of dimeric peptides representing each of the three configurations. Values are normalized to ephrin binding without peptide. The graphs show averages and SDs from triplicate measurements (with each measurement shown as a dot).

[5] = molecular target: T2, EphA2; assay: Bias factor βlig (pY588 versus pAKT inhibition, PC3 cells, reference ephrinA1-Fc); assay type: cell-based; set-up: EphA2 is the prevalent endogenously expressed EphA receptor in these cells; endogenous in cells; host or cells: PC3 prostate cancer cells; conditions: for βu (bias factor βlig): Table 3, reference ligand ephrinA1-Fc (βlig=0)
Procedure: FIG. 6 illustrates an example where Ligands can bias EphA2 signaling responses. The bias factor βlig was calculated for the indicated ligands using ephrinA1-Fc as the reference ligand. Statistical significance for the comparison of the different ligands with the reference ligand ephrinA1-Fc (βlig=0) was determined by one sample t test; *, P<0.05; **, P<0.01; ***, P<0.001; ****, P<0.0001.
FIG. 14A-14E illustrates an example where distinct factors are responsible for EphA2 biased signaling induced by different ligands. (FIG. 14A) Etop values for EphA2 Y588 phosphorylation, as in FIG. 2C. (FIG. 14B) Etop values for inhibition of AKT phosphorylation. (FIG. 14C) Graph of the ratios of the Etop values for EphA2 Y588 phosphorylation and inhibition of AKT phosphorylation, which are used in the βlig calculation. (FIG. 14D) Graph of the ratios of the EC50 values for EphA2 Y588 phosphorylation and inhibition of AKT phosphorylation, which are used in the βlig calculation. (FIG. 14E) Equation used to calculate the bias factor βlig for each ligand. The terms of the equation are rearranged, compared to equation (1) in the Materials and Methods, to better conform to the graphs in FIG. 14A-14D. **, P<0.01; ***, P<0.001; ****, P<0.0001; ns, not significant for the comparison with ephrinA1-Fc by one-way ANOVA and Dunnett's posthoc test.
The possibility of EphA2 biased signaling by analyzing the dose-response curves obtained with endogenous EphA2 in PC3 cells (FIG. 2A) was explored using approaches developed for GPCRs. This involves using EphA2 Y588 phosphorylation and AKT phosphorylation quantified as a function of ligand concentration to determine and compare the potency (EC50) and efficacy (Etop) for the two responses induced by different ligands. Remarkably, large differences among the ligands in the Etop values for Y588 phosphorylation (FIGS. 2C, 2D and 14A), but not in the Etop values for AKT inhibition (FIGS. 2E and 14B), were observed. In terms of relative efficacies for pY588 and pAKT inhibition, the C-terminally linked dimers and monomeric ligands behave differently from ephrinA1-Fc, while the N-terminally linked dimers and the head-to-tail dimer (8) are similar to ephrinA1-Fc (FIG. 14C). […] Thus, the type of linkage affects EphA2 signaling properties induced by the dimeric peptides.
The determined EC50 and Etop values allowed us to calculate the bias factor βlig for the two different responses induced by the various ligands relative to ephrinA1-Fc as the reference ligand (FIG. 14E). […] Remarkably, the bias originates from different mechanisms that depend on the class of ligands, with the N-terminally linked and head-to-tail dimers modulating relative potencies and the C-terminally-linked dimers and monomers modulating relative efficacies.

[6] = tested on: AKT; assay: Inhibition of AKT phosphorylation on S473 in PC3 cells; assay type: cell-based; conditions: for EC50 / Etop pAKT inhlb: Table 3; for EC50: PC3 cells treated for 15 min, read-out: ECsa pAKT inhlb.; for Etop pAKT inhlb: 15 min, 1-pAKT/AKT normalized to cells not treated with ligand
Procedure: as §1

[7] = molecular target: T2, EphA2; assay: EphA2 activation (Y588 phosphorylation) in cells by monomeric YSA derivatives; assay type: cell-based; set-up: EphA2 is the prevalent endogenously expressed EphA receptor in these cells; endogenous in cells; host or cells: PC3 prostate cancer cells
From the text: However, as expected given their much higher potency, these two peptides are active at nanomolar concentrations. The C-terminal biotin promotes the agonistic activity of YSA derivative peptides. […] This is confirmed with the crystal structures. Thus, peptides with 1 to 7 residues between Prol 0, which is conserved in all YSA derivatives of Table 2, and the Lys-biotin residue, can all efficiently activate EphA2. […] Non-amidated β[…] has the ability to activate EphA2 in cells, even though the concentrations needed are about 10-fold higher than for the biotinylated peptide and the maximal […] phosphorylation induced by saturating peptide concentrations is about 40% lower. The C-terminally amidated version of the peptide loses the ability to activate EphA2, consistent with a role of the C-terminal negative charge for EphA2 activation even in the absence of biotin.

[8] = molecular target: T1, EphA2 LBD; conditions: previous studies, cited from earlier work
[9] = DMSO, Table 4, third of PBS/H20/DMSO, read-out: Solubility in DMSO
[10] = DMSO, third of PBS/H2O/DMSO, read-out: Solubility in DMSO
[11] = PBS, Table 4, first of PBS/H20/DMSO, read-out: Solubility in PBS
[12] = PBS, first of PBS/H2O/DMSO, read-out: Solubility in PBS
[13] = water, Table 4, second of PBS/H20/DMSO, read-out: Solubility in H20
[14] = water, second of PBS/H2O/DMSO, read-out: Solubility in H2O

T2 sequence (P29317 24-976): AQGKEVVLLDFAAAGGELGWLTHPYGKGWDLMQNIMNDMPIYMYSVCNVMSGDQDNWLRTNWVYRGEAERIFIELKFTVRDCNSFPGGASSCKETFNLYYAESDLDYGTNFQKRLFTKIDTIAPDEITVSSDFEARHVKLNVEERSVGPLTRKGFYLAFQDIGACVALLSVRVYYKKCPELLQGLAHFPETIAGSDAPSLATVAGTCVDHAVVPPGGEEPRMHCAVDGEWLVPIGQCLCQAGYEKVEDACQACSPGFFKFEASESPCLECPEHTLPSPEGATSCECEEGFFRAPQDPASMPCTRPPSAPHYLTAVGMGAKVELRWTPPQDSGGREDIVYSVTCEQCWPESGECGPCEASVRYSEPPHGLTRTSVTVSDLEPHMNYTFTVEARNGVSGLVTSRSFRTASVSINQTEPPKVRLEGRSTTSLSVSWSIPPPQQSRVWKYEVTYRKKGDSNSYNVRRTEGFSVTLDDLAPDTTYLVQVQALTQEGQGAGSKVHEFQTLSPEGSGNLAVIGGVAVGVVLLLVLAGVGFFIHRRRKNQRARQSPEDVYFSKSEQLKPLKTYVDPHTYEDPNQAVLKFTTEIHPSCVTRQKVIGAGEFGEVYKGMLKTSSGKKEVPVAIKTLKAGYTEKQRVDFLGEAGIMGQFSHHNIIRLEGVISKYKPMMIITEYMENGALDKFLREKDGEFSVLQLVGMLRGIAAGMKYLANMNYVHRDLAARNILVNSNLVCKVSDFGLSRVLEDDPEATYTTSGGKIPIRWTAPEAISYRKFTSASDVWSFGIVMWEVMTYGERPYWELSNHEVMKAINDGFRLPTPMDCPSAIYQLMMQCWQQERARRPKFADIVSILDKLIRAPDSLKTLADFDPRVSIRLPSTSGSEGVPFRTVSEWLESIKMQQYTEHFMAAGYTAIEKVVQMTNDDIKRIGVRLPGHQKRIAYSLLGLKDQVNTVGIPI
T1 sequence (P29317 28-200): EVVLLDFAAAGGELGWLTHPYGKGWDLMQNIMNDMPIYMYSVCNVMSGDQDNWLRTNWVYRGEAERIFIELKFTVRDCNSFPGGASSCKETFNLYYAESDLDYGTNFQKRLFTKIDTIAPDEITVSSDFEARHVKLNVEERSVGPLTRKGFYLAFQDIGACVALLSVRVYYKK
T3 sequence (P29317 24-537 limits assumed): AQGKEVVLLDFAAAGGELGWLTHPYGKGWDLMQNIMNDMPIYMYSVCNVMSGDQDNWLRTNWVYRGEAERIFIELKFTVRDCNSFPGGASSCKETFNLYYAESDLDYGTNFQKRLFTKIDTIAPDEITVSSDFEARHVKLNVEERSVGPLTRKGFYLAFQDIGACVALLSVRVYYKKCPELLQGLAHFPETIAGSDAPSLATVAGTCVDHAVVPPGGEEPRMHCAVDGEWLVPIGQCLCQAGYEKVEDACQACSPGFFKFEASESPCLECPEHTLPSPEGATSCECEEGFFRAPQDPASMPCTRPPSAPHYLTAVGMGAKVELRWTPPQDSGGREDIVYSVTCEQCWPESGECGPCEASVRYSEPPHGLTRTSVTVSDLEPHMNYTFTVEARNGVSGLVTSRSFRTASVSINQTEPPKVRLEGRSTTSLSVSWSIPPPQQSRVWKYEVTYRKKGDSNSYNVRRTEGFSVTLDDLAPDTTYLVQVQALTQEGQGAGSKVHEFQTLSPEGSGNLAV

| SMILES | Etop pY588 [2] | solubility [3, 9] [µg/mL] | solubility [3, 10] [µg/mL] | solubility [3, 11] [µg/mL] | solubility [3, 12] [µg/mL] | solubility [3, 13] [µg/mL] | solubility [3, 14] [µg/mL] | IC50 [4] [nM] | βu (bias factor βlig) [5] | EC50 [6] [nM] | Etop pAKT inhlb ([6]; PC3 cells) | also measured |
| --- | --- | --- | --- | --- | --- | --- | --- | --- | --- | --- | --- | --- |
| CC(C)C[C@H](NC(=O)[C@H](Cc1c[nH]c2ccccc12)NC(=O)CCN)C(=O)N[C@@H](C)C(=O)N[C@@H](Cc1ccc(O)cc1)C(=O)N1CCC[C@H]1C(=O)N[C@@H](CC(=O)O)C(=O)N[C@@H](CO)C(=O)N[C@H](C(=O)N1CCC[C@H]1C(=O)N[C@@H](Cc1ccc(O)cc1)C(=O)NCC(=O)N[C@@H](CO)C(=O)NCC(=O)N[C@@H](CSSC[C@H](NC(=O)CNC(=O)[C@H](CO)NC(=O)CNC(=O)[C@H](Cc1ccc(O)cc1)NC(=O)[C@@H]1CCCN1C(=O)[C@@H](NC(=O)[C@H](CO)NC(=O)[C@H](CC(=O)O)NC(=O)[C@@H]1CCCN1C(=O)[C@H](Cc1ccc(O)cc1)NC(=O)[C@H](C)NC(=O)[C@H](CC(C)C)NC(=O)[C@H](Cc1c[nH]c2ccccc12)NC(=O)CCN)C(C)C)C(=O)O)C(=O)O)C(C)C [compound 1, βA-WLA-YGSGC dimer (C-ter)] (I: H-[βAla]WLAYPDSVPYGSGC-OH / II: H-[βAla]WLAYPDSVPYGSGC-OH; disulfide I:15-II:15; N-terminus and C-terminus assumed) | 0.49 ± 0.06 | 5000 (≈ 1580 µM) | 5000 (≈ 1580 µM) | < 100 | < 100 | < 100 | < 100 | 71 ± 26 | 0.506 ± 0.12 | 39 ± 8 | 0.90 ± 0.04 | Kd [1]: 2900 nM; N (binding stoichiometry by ITC) ([1]; Table 3): N = 1.7 ± 0.2; -TΔS ([1]; Table 6): 16.30 ± 11 kcal/mol; N ([1]; Table 6, binding stoichiometry): 1.7 ± 0.2; ΔG ([1]; Table 6, change in Gibbs energy): -7.55 ± 0.27 kcal/mol; ΔH ([1]; Table 6, change in enthalpy): -23.85 ± 11 kcal/mol |
| CC(C)C[C@H](NC(=O)[C@H](Cc1c[nH]c2ccccc12)NC(=O)[C@H](C)NC(=O)CNC(=O)[C@@H](N)CSSC[C@H](N)C(=O)NCC(=O)N[C@@H](C)C(=O)N[C@@H](Cc1c[nH]c2ccccc12)C(=O)N[C@@H](CC(C)C)C(=O)N[C@@H](C)C(=O)N[C@@H](Cc1ccc(O)cc1)C(=O)N1CCC[C@H]1C(=O)N[C@@H](CC(=O)O)C(=O)N[C@@H](CO)C(=O)N[C@H](C(=O)N1CCC[C@H]1C(=O)N[C@@H](Cc1ccc(O)cc1)C(=O)N[C@@H](CCCNC(=N)N)C(=O)N1CCC[C@H]1C(=O)N[C@@H](CCCCN)C(N)=O)C(C)C)C(=O)N[C@@H](C)C(=O)N[C@@H](Cc1ccc(O)cc1)C(=O)N1CCC[C@H]1C(=O)N[C@@H](CC(=O)O)C(=O)N[C@@H](CO)C(=O)N[C@H](C(=O)N1CCC[C@H]1C(=O)N[C@@H](Cc1ccc(O)cc1)C(=O)N[C@@H](CCCNC(=N)N)C(=O)N1CCC[C@H]1C(=O)N[C@@H](CCCCN)C(N)=O)C(C)C [compound 6, CGA-WLA-YRPKam dimer (N-ter)] | 0.98 ± 0.08 | 10000 (≈ 2750 µM) | 10000 (≈ 2750 µM) | < 100 | < 100 | 5000 (≈ 1370 µM) | 5000 (≈ 1370 µM) | 0.4 ± 0.1 | 0.51 ± 0.13 | 0.08 ± 0.02 | 0.97 ± 0.03 | Emax PY588 ([2]; ephrinA1Fc = 1.00): 0.80 ± 0.01; EC50 ([2]; read-out: EC50 PY588): 0.12 ± 0.01 nM; Blig ([5]; bias factor, reference ligand ephrinA1Fc): 0.36 ± 0.09; IC50 ([6]; PC3 cells): 0.043 ± 0.007 nM |
| CC(C)C[C@H](NC(=O)[C@H](Cc1c[nH]c2ccccc12)NC(=O)CCN)C(=O)N[C@@H](C)C(=O)N[C@@H](Cc1ccc(O)cc1)C(=O)N1CCC[C@H]1C(=O)N[C@@H](CC(=O)O)C(=O)N[C@@H](CO)C(=O)N[C@H](C(=O)N1CCC[C@H]1C(=O)N[C@@H](Cc1ccc(O)cc1)C(=O)N[C@@H](CCCNC(=N)N)C(=O)N1CCC[C@H]1C(=O)N[C@@H](CCCCN)C(=O)O)C(C)C [βA-WLA-YRPK] |  |  |  |  |  |  |  |  |  |  |  | maximal Y588 phosphorylation at saturating peptide concentrations, lower than the biotinylated peptide [7]: about 40%; concentrations needed to activate EphA2 in cells relative to the biotinylated peptide ([7]; higher than for βA-WLA-YRPK-bio): about 10 fold; improvement of binding affinity compared to monomeric YSA-GSGSK-bio [8]: 50 fold; Kd ([8]; read-out: binding affinity for the EphA2 LBD measured by ITC): ~200 nM |
